Measured values reported in patent US9744148B2, “Kallikrein 7 inhibitors” (SIXERA PHARMA AB, priority 2014, dated 2017).

target: Active human KLK7 (SCCE) (Homo sapiens (Human), UniProt P49862); assay: KLK7 Inhibitor Test; format: biochemical; settings: substrate MeO-Suc-Arg-Pro-Tyr-pNA, pH 7.2, 37° C., absorbance at 405 nm
Experimental: KLK7 Inhibitor Test Substrate:(MeO-Suc-[…]), acetate salt, Peptide international, lot #906841, previously named S-2586 Enzyme: […] Buffer: 10 mM NaPhospate, 0.5 M NaCl, pH 7.2 […] 10 μl of substance in DMSO was added to wells giving final concentrations of 20 μ[…], and 0.15625 μM. 40 μl of active KLK7 (SCCE) (diluted to 12.5 μg/ml in activity buffer) was added all wells except blank to which activity buffer was added. […] The mean value V of each sample was calculated (n=2 for the substances and n=4 for the control). From the values of V the % of total activity was calculated as (Vinhibitor/Vcontrol (no inhibitor))×100. Plotting and calculation was then done in originPro. % of total activity (y) was plotted vs. log [inhibitor] (log x) and a function of dose response y=A1+(A2-A1)/(1+10^((LOG(x0)-x)*p)) where A1=Bottom platue, A2=Top platue, x0=EC50 and p=Hill slope was fitted to the curve. […] The IC50 values were used to identify KLK7 inhibitors according to the invention.

Sequence of Active human KLK7 (SCCE) (P49862 30-253): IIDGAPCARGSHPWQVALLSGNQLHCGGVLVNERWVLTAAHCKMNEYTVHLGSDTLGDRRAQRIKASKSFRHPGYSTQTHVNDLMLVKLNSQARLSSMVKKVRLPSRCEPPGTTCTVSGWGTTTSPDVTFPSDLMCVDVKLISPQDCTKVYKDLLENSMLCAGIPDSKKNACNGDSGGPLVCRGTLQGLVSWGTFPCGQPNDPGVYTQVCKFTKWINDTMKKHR

Structure (SMILES) | IC50
Cc1cc(NC(=O)C(C)OC(=O)Cc2ccc(Cl)cc2)no1 (stereo not shown) [Compound 1, [1-methyl-2-[(5-methylisoxazol-3-yl)amino]-2-oxo-ethyl] 2-(4-chlorophenyl)acetate] | 39 nM
CC(OC(=O)Cc1ccc(Cl)cc1)C(=O)Nc1ccc(F)cc1 (stereo not shown) [Compound 2] | 70 nM
CCC(OC(=O)Cc1ccc(Cl)cc1)C(=O)Nc1cc(C)on1 (stereo not shown) [Compound 3, 1-[(5-methylisoxazol-3-yl)carbamoyl]propyl 2-(4-chlorophenyl)acetate] | 80 nM
COc1ccc(NC(=O)C(C)OC(=O)Cc2ccc(Cl)cc2)cc1 (stereo not shown) [Compound 4, [2-(4-methoxyanilino)-1-methyl-2-oxo-ethyl] 2-(4-chlorophenyl)acetate] | 80 nM
CC(OC(=O)Cc1ccc(Cl)cc1)C(=O)Nc1ccccc1 (stereo not shown) [Compound 5] | 90 nM
CCC(OC(=O)Cc1ccc(Cl)cc1)C(=O)Nc1ccc(OC)cc1 (stereo not shown) [Compound 6, 1-[(4-methoxyphenyl)carbamoyl]propyl 2-(4-chlorophenyl)acetate] | 120 nM
COc1ccc(CC(=O)OC(C)C(=O)Nc2cc(C)on2)cc1 (stereo not shown) [Compound 7, [1-methyl-2-[(5-methylisoxazol-3-yl)amino]-2-oxo-ethyl] 2-(4-methoxyphenyl) acetate] | 130 nM
CCC(OC(=O)Cc1ccc(Cl)cc1)C(=O)Nc1ccc(F)cc1 (stereo not shown) [Compound 8, 1-[(4-fluorophenyl)carbamoyl]propyl 2-(4-chlorophenyl)acetate] | 140 nM
CCC(OC(=O)Cc1ccc(Cl)cc1)C(=O)Nc1ccccc1 (stereo not shown) [Compound 9, 1-(phenylcarbamoyl)propyl 2-(4-chlorophenyl)acetate] | 150 nM
CCC(OC(=O)CCC1CCCC1)C(=O)Nc1ccc(OC)cc1 (stereo not shown) [Compound 11, 1-[(4-methoxyphenyl)carbamoyl]propyl 3-cyclopentylpropanoate] | 150 nM
CCC(OC(=O)Cc1ccc(OC)cc1)C(=O)Nc1cc(C)on1 (stereo not shown) [Compound 12, 1-[(5-methylisoxazol-3-yl)carbamoyl]propyl 2-(4-methoxyphenyl) acetate] | 150 nM
COc1ccc(NC(=O)C(OC(=O)Cc2ccc(Cl)cc2)c2ccccc2)cc1 (stereo not shown) [Compound 13, [2-(4-methoxyanilino)-2-oxo-1-phenyl-ethyl] 2-(4-chlorophenyl)acetate] | 170 nM
Cc1cc(NC(=O)C(C)OC(=O)CCC2CCCC2)no1 (stereo not shown) [Compound 14, [1-methyl-2-[(5-methylisoxazol-3-yl)amino]-2-oxo-ethyl] 3-cyclopentylpropanoate] | 180 nM
COc1ccc(CC(=O)OC(C)C(=O)Nc2ccc(OC)cc2)cc1 (stereo not shown) [Compound 15, [2-(4-methoxyanilino)-1-methyl-2-oxo-ethyl] 2-(4-methoxyphenyl)acetate] | 180 nM
CCC(OC(=O)CCC1CCCC1)C(=O)Nc1cc(C)on1 (stereo not shown) [Compound 16, 1-[(5-methylisoxazol-3-yl)carbamoyl]propyl 3-cyclopentylpropanoate] | 190 nM
Cc1cc(NC(=O)C(OC(=O)Cc2ccc(Cl)cc2)c2ccccc2)no1 (stereo not shown) [Compound 17, [2-[(5-methylisoxazol-3-yl)amino]-2-oxo-1-phenyl-ethyl] 2-(4-chlorophenyl)acetate] | 190 nM
CCCC(OC(=O)C(c1ccccc1)c1ccccc1)C(=O)Nc1cc(C)on1 (stereo not shown) [Compound 18] | 220 nM
COc1ccc(NC(=O)C(OC(=O)CCC2CCCC2)c2ccccc2)cc1 (stereo not shown) [Compound 19, [2-(4-methoxyanilino)-2-oxo-1-phenyl-ethyl] 3-cyclopentylpropanoate] | 230 nM
Cc1cc(NC(=O)C(OC(=O)CCC2CCCC2)c2ccccc2)no1 (stereo not shown) [Compound 20, [2-[(5-methylisoxazol-3-yl)amino]-2-oxo-1-phenyl-ethyl] 3-cyclopentylpropanoate] | 230 nM
COc1ccc(CC(=O)OC(C)C(=O)Nc2ccccc2)cc1 (stereo not shown) [Compound 21] | 260 nM
CC(OC(=O)CCC1CCCC1)C(=O)Nc1ccc(F)cc1 (stereo not shown) [Compound 22] | 260 nM
CCC(OC(=O)Cc1ccc(OC)cc1)C(=O)Nc1cc(C)on1 (stereo not shown) [Compound 23, 1-[(5-methylisoxazol-3-yl)carbamoyl]propyl 2-(4-methoxyphenyl)acetate] | 270 nM
CCC(OC(=O)Cc1ccc(OC)cc1)C(=O)Nc1ccc(OC)cc1 (stereo not shown) [Compound 24, 1-[(4-methoxyphenyl)carbamoyl]propyl 2-(4-methoxyphenyl)acetate] | 280 nM
CCC(OC(=O)CCC1CCCC1)C(=O)Nc1ccc(F)cc1 (stereo not shown) [Compound 25, 1-[(4-fluorophenyl)carbamoyl]propyl 3-cyclopentylpropanoate] | 310 nM
CCC(OC(=O)Cc1ccc2c(c1)OCO2)C(=O)Nc1cc(C)on1 (stereo not shown) [Compound 26, 1-[(5-methylisoxazol-3-yl)carbamoyl]propyl 2-(1,3-benzodioxol-5-yl)acetate] | 320 nM
CCCCC(OC(=O)C(c1ccccc1)c1ccccc1)C(=O)Nc1cc(C)on1 (stereo not shown) [Compound 27] | 330 nM
CC[C@H](OC(=O)C(c1ccccc1)c1ccccc1)C(=O)Nc1cc(C)on1 [Compound 28] | 340 nM
O=C(Cc1ccc(Cl)cc1)OC(C(=O)Nc1ccc(F)cc1)c1ccccc1 (stereo not shown) [Compound 29] | 350 nM
CCC(OC(=O)Cc1ccc(OC)cc1)C(=O)Nc1ccc(F)cc1 (stereo not shown) [Compound 30, 1-[(4-fluorophenyl)carbamoyl]propyl 2-(4-methoxyphenyl)acetate] | 360 nM
CC(OC(=O)CCC1CCCC1)C(=O)Nc1ccccc1 (stereo not shown) [Compound 31, (2-anilino-1-methyl-2-oxo-ethyl) 3-cyclopentylpropanoate] | 370 nM

Next, values leading:

IC50 | Structure (SMILES)
380 nM | O=C(Cc1ccc(Cl)cc1)OC(C(=O)Nc1ccccc1)c1ccccc1 (stereo not shown) [Compound 32, (2-anilino-2-oxo-1-phenyl-ethyl) 2-(4-chlorophenyl)acetate]
390 nM | CCC(OC(=O)C(c1ccccc1)c1ccccc1)C(=O)Nc1cc(C)on1 (stereo not shown) [Compound 33]
390 nM | CCC(OC(=O)Cc1ccc(OC)cc1)C(=O)Nc1ccccc1 (stereo not shown) [Compound 34, 1-(phenylcarbamoyl)propyl 2-(4-methoxyphenyl)acetate]
410 nM | COc1ccc(CC(=O)OC(C(=O)Nc2ccc(OC)cc2)c2ccccc2)cc1 (stereo not shown) [Compound 35, [2-(4-methoxyanilino)-2-oxo-1-phenyl-ethyl] 2-(4-methoxyphenyl)acetate]
430 nM | COc1ccc(CC(=O)OC(C(=O)Nc2cc(C)on2)c2ccccc2)cc1 (stereo not shown) [Compound 36, [2-[(5-methylisoxazol-3-yl)amino]-2-oxo-1-phenyl-ethyl] 2-(4-methoxyphenyl)acetate]
460 nM | O=C(CCC1CCCC1)OC(C(=O)NCc1ccccc1)c1ccccc1 (stereo not shown) [Compound 37, [2-(benzylamino)-2-oxo-1-phenyl-ethyl] 3-cyclopentylpropanoate]
470 nM | COCCC(OC(=O)C(c1ccccc1)c1ccccc1)C(=O)Nc1cc(C)on1 (stereo not shown) [Compound 38]
480 nM | CCC(OC(=O)Cc1ccc(Cl)c(Cl)c1)C(=O)Nc1cc(C)on1 (stereo not shown) [Compound 39, 1-[(5-methylisoxazol-3-yl)carbamoyl]propyl 2-(3,4-dichlorophenyl)acetate]
550 nM | COc1ccc(NC(=O)COC(=O)Cc2ccc(Cl)cc2)cc1 [Compound 40]
580 nM | CCC(OC(=O)Cc1ccc(OC)c(OC)c1)C(=O)Nc1cc(C)on1 (stereo not shown) [Compound 41, 1-[(5-methylisoxazol-3-yl)carbamoyl]propyl 2-(3,4-dimethoxyphenyl)acetate]
590 nM | COc1ccc(CC(=O)OC(C)C(=O)Nc2ccc(F)cc2)cc1 (stereo not shown) [Compound 42]
630 nM | CCC(OC(=O)C(c1ccccc1)c1ccccc1)C(=O)Nc1ccc(OC)cc1 (stereo not shown) [Compound 43, 1-[(4-methoxyphenyl)carbamoyl]propyl 2,2-diphenylacetate]
640 nM | CCC(OC(=O)C(c1ccccc1)c1ccccc1)C(=O)Nc1ccc(F)cc1 (stereo not shown) [Compound 44, 1-[(4-fluorophenyl)carbamoyl]propyl 2,2-diphenylacetate]
660 nM | CCC(OC(=O)C(NC(=O)c1ccccc1)c1ccccc1)C(=O)Nc1cc(C)on1 (stereo not shown) [Compound 45]
690 nM | COc1ccc(NC(=O)COC(=O)CCC2CCCC2)cc1 [Compound 46]
740 nM | Cc1cc(NC(=O)C(C)OC(=O)C(c2ccccc2)c2ccccc2)no1 (stereo not shown) [Compound 47, [1-methyl-2-[(5-methylisoxazol-3-yl)amino]-2-oxo-ethyl] 2,2-diphenylacetate]
760 nM | CCC(OC(=O)C(c1ccccc1)c1ccccc1)C(=O)Nc1ccccc1 (stereo not shown) [Compound 48, 1-(phenylcarbamoyl)propyl 2,2-diphenylacetate]
780 nM | Cc1cc(NC(=O)C(OC(=O)C(NC(=O)c2ccccc2)c2ccccc2)c2ccccc2)no1 (stereo not shown) [Compound 49, [2-[(5-methylisoxazol-3-yl)amino]-2-oxo-1-phenyl-ethyl] 2-benzamido-2-phenyl-acetate]
790 nM | O=C(COC(=O)Cc1ccc(Cl)cc1)Nc1ccc(F)cc1 [Compound 50]
830 nM | O=C(COC(=O)CCC1CCCC1)Nc1ccc(F)cc1 [Compound 51]
950 nM | Cc1cc(NC(=O)C(C)OC(=O)C(NC(=O)c2ccccc2)c2ccccc2)no1 (stereo not shown) [Compound 52, [1-methyl-2-[(5-methylisoxazol-3-yl)amino]-2-oxo-ethyl] 2-benzamido-2-phenyl-acetate]
1100 nM | CC(OC(=O)C(c1ccccc1)c1ccccc1)C(=O)Nc1ccccc1 (stereo not shown) [Compound 53]
